{"source": "patent US8207211B2", "about": "“Photosensitizers for targeted photodynamic therapy” (The General Hospital Corporation, priority 2005, dated 2012)", "key": {"[1]": {"experiment": "Octanol-water distribution coefficient", "format": "physicochemical", "details": "1-octanol/DI water, absorbance at 330 nm", "procedure": "Each compound was dissolved in a minimum amount of DMSO: CI1 (0.9 mg in 200 μl), CI2 (5.3 mg in 200 μl), CI3 (5.4 mg in 200 μl). Ten ml of DI water and 10 ml of 1-octanol were added in each compound and vigorously shaken for 2 min. and the vials of the compounds were settled down overnight. The phases were separated and UV-spectra of each phase were analyzed. Distribution coefficient of each compound was determined using absorbance of aqueous phases and organic phases at 330 nm."}, "S. aureus [2]": {"tested_on": "S. aureus", "experiment": "Photodynamic inactivation (PDI), CFU survival, 405-nm light (Example 8)", "format": "cell-based, Staphylococcus aureus", "from_the_text": "(§1) Four microbial species were used in this study. Briefly, Escherichia coli was purchased from ATCC (ATCC #25922), Pseudomonas aeruginosa, two clinical isolates, were obtained; UCBP PA 14 from L. Rahme (Massachusetts General Hospital) and PA 767K from Kim Lewis (Tufts University), slime deficient mutant of Staphylococcus aureus was obtained from Gerald B Pier (Channing Laboratories). Yeast strain Candida albicans was purchased from ATCC (ATCC #18804). Exponential cultures obtained by reculturing stationary overnight cultures were used for all experiments. Bacteria were grown at 37° C. in BHI broth to a cell density of 10^8 cells per mL. C. albicans was grown 37° C. in YM medium to 10^7 cells/mL.\n(§2) Six fullerene derivatives (NI1-3 and CI1-3) were evaluated. […] Concentration of fullerene derivatives used in the experiments varied between 1 and 100 μM.\nFullerene derivatives were mixed with microbial suspensions and incubated in the dark at room temperature for 10 minutes. Excess fullerenes were either washed out of, or left in, the suspensions before illumination. Aliquots of 100 μL were placed on three well hanging drop slides and illuminated with either a 405-nm laser (Nichia Chemical Industries) at an irradiance of 100 mW/cm^2, or with white light at room temperature. White light was 400-700 nm Gaussian distribution from LumaCare™ lamp with filtered liquid light guide, as described above.\nDuring illumination, aliquots of 20 μL were taken to determine the colony-forming units. The contents of the wells were mixed before sampling. The aliquots were serially diluted 10-fold in PBS without Ca^++/Mg^++ to give dilutions of 10^−1−10^−6 times the original concentrations, and were streaked horizontally on square BHI agar plates. Plates were incubated at 37° C. overnight. Colonies were counted and survival fraction was determined as percent of survival compared to control. Microbial suspensions incubated with fullerene derivatives in DMSO in the absence of light and bacteria illuminated in the absence of fullerene derivatives were used as controls. […]"}, "E. coli": {"tested_on": "E. coli", "experiment": "Photodynamic inactivation (PDI), CFU survival, 405-nm light (Example 8)", "format": "cell-based, Escherichia coli", "details": "10-20 μM, 16 J/cm^2 of 405-nm light", "from_the_text": "as §1, §2\n(§3) Fullerene derivatives were mixed with microbial suspensions and incubated in the dark at room temperature for 10 minutes. Excess fullerenes were either washed out of, or left in, the suspensions before illumination. […]\n(§4) During illumination, aliquots of 20 μL were taken to determine the colony-forming units. […] Colonies were counted and survival fraction was determined as percent of survival compared to control. […]"}, "P. aeruginosa": {"tested_on": "P. aeruginosa", "experiment": "Photodynamic inactivation (PDI), CFU survival, 405-nm light (Example 8)", "format": "cell-based, Pseudomonas aeruginosa", "from_the_text": "as §1, §2, §3, §4"}, "C. albicans [3]": {"tested_on": "C. albicans", "experiment": "Photodynamic inactivation (PDI), CFU survival, 405-nm light (Example 8)", "format": "cell-based, Candida albicans", "details": "10-20 μM, 16 J/cm^2 of 405-nm light", "from_the_text": "as §1, §2, §3, §4"}, "C. albicans [4]": {"tested_on": "C. albicans", "experiment": "Photodynamic inactivation (PDI), CFU survival, white light (red light for TBO)", "format": "cell-based, Candida albicans", "details": "10 μM, 10 min", "procedure": "Staphylococcus aureus (ATCC #35556), Escherichia coli (ATCC #25922), and Pseudomonas aeruginosa (ATCC #BAA-47; PAO1) were cultured in brain-heart infusion (BHI) broth (Difco, BD Diagnosttic Systems, Sparks, Md.) at 37° C. in aerobic conditions in a shaker at 150 rpm. Candida albicans (ATCC #18804) is grown in YM broth (Difco). Exponential cultures obtained by reculturing stationary overnight precultures were used for experiments.\nE. coli, P. aeruginosa, and S. aureus are grown in fresh medium for approximately 1 hr to a density of about 10^8 cells/ml; the OD values at 650 nm are 0.6, 0.8, and 0.8, respectively. C. albicans is grown for approximately 4 hr to an approximate density of 10^8 cells/ml, corresponding to an OD of 6 at 650 nm (measured at 10-fold dilution). Cells were used for experiments in the mid-log growth phase.\nA noncoherent lamp with filtered liquid light guides, e.g., a LumaCare™ LC122 lamp (MBG Technologies, Inc., Newport Beach, Calif.) was used to provide illumination of PS. More specifically, for illumination of fullerenes, a broad-band white light band pass filter (400-700 nm) was used, whereas for TBO, a band pass filter at 620-650 nm was used. The lamp was adjusted to give a uniform spot of about 4 cm diameter with an irradiance of 200 mW/cm^2, as measured with a power meter, e.g., a model DMM 199 meter with 201 Standard head (Coherent, Santa Clara, Calif.).\nTypically, derivatized fullerenes prepared as described above are dissolved in DMSO to provide stock solutions having final concentrations of about 5 mM. […] All stock solutions were stored in the dark at room temperature.\nIn some experiments, for example in studies described in Examples below, suspensions of S. aureus cells (10^8 per ml) were incubated with derivatized fullerenes such as NI-1-3 and CI1-3 at a concentration of 100 μM in PBS at room temperature for 10 min. In other experiments, the bacterial suspension was centrifuged (4000×g for 10 min) after incubation and resuspended in fresh PBS before illumination; the latter procedure was referred to herein as a “wash.” E. coli, P. aeruginosa, and C. albicans were used at concentrations of about 10^8 cells per ml.\nIllumination was carried out from above on microbial cell suspensions in wells of a 24-well plate. Aliquots were removed at times corresponding to the delivery of calculated fluences of light, and were serially diluted in PBS and streaked on square BHI or YM agar plates according to the method of Jett et al. (Jett, B. D., Hatter, K. L., Huycke, M. M., and Gilmore, M. S. (1997). Simplified agar plate method for quantifying viable bacteria. Biotechniques 23, 648-650). Survival fractions were calculated with reference to cells incubated in PBS alone. Values on killing curves at 0 J/cm^2 represent the dark toxicity of the fullerenes or other PS tested. Control cells were treated with light and no PS and also analyzed for viability."}, "S. aureus [5]": {"tested_on": "S. aureus", "experiment": "Photodynamic inactivation (PDI), CFU survival, white light (red light for TBO)", "format": "cell-based, Staphylococcus aureus", "details": "1 μM"}}, "data": [{"smiles": "C[N+]1(C)Cc2c(c3c4ccc5c6ccc7c8ccc9c%10c%11c%12c(c2c2c3c3c4c5c4c6c7c5c8c9c%11c6c(c%122)c3c4c56)C2C[N+](C)(C)CC%102)C1", "note": "(stereo not shown) [CI2]", "values": [{"measurement": "Kow (octanol-water partition constant)", "setting": "[1]", "result": 1.28}, {"measurement": "LogKow", "setting": "[1]", "result": 0.11}, {"measurement": "PDI of S. aureus", "setting": "S. aureus [2]; 100 μM, 10 min, 405 nm light 0-200 J/cm^2", "result": "most potent"}, {"measurement": "killing of S. aureus", "setting": "S. aureus [2]; 1-μM, 8 J/cm^2, 405 nm light", "result": 6, "unit": "logs"}, {"measurement": "potency relative to the other fullerene derivatives", "setting": "S. aureus [2]; S. aureus, 1 μM and 8 J/cm^2 versus 100 μM screen", "result": "approximately 1000 times"}, {"measurement": "killing of E. coli", "setting": "E. coli", "result": "high levels of killing"}, {"measurement": "killing of P. aeruginosa", "setting": "P. aeruginosa; 10-20 μM, 16 J/cm^2 of 405-nm light", "result": "high levels of killing"}, {"measurement": "effect of a wash on killing of P. aeruginosa", "setting": "P. aeruginosa; illumination with versus without a wash, 405 nm", "result": "more killing after a wash"}, {"measurement": "killing of C. albicans", "setting": "C. albicans [3]", "result": "high levels of killing"}, {"measurement": "PDT activity against C. albicans", "setting": "C. albicans [4]; white light up to 50 J/cm^2", "result": "effectively killed"}, {"measurement": "relative effectiveness in killing C. albicans", "setting": "C. albicans [4]; with a wash, white light", "result": "much better than CI1"}, {"measurement": "PDT activity against S. aureus", "setting": "S. aureus [5]; 10 min, white light up to 50 J/cm^2", "result": "effectively killed"}, {"measurement": "light sufficient to kill 4-5 logs of S. aureus", "setting": "S. aureus [5]; with a wash, white light", "result": 2, "unit": "J/cm^2"}]}]}
